PubChem BioAssay (NCI)
Values joined by “and” are separate entries in the source; they are usually repeats but may differ in a detail not shown here. Equal values may be shown once.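 Method: 48-hour compound exposure of cells in 96-well plates, five concentrations, linear interpolation of endpoints. GI50 = concentration required for 50% inhibition of growth. TGI is the concentration that stops growth completely.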

Key:
Assay in all cases: NCI tumour cell line growth inhibition, 48 h
NCI/ADR-RES ovarian = system: NCI/ADR-RES ovarian
A549 NSCLC = system: A549 NSCLC
SF-295 CNS = system: SF-295 CNS
SN12C renal = system: SN12C renal
T-47D breast = system: T-47D breast
IGROV1 ovarian = system: IGROV1 ovarian
UACC-62 melanoma = system: UACC-62 melanoma
SNB-75 CNS = system: SNB-75 CNS
SW-620 colon = system: SW-620 colon
EKVX NSCLC = system: EKVX NSCLC

Row | Compound | GI50 (NCI/ADR-RES ovarian) | TGI (NCI/ADR-RES ovarian) | GI50 (A549 NSCLC) | TGI (A549 NSCLC) | GI50 (SF-295 CNS) | TGI (SF-295 CNS) | GI50 (SN12C renal) | TGI (SN12C renal) | GI50 (T-47D breast) | TGI (T-47D breast) | GI50 (IGROV1 ovarian) | TGI (IGROV1 ovarian) | GI50 (UACC-62 melanoma) | TGI (UACC-62 melanoma) | GI50 (SNB-75 CNS) | TGI (SNB-75 CNS) | GI50 (SW-620 colon) | TGI (SW-620 colon) | GI50 (EKVX NSCLC) | TGI (EKVX NSCLC)
1 | COC(=O)[C@]1(C)CCC[C@@]2(C)C3=C(CC[C@H]12)C[C@@H](CC(OC(C)=O)OC(C)=O)[C@@H](C)C3 | 8.95 µM | 16.3 µM | 15.4 µM | > 43.6 µM | 11 µM | 26.7 µM | 9.42 µM | 20.6 µM | 4.17 µM | 13.7 µM | 14.5 µM | > 37.1 µM | 8.82 µM | 19.4 µM | 14.1 µM | 30.5 µM | 11 µM | 22.7 µM | 11.7 µM | 23.9 µM
2 | C=C1C(=O)O[C@@H]2/C=C(/C)[C@@H](OC(C)=O)C[C@@H](O)/C(C)=C\[C@@H](OC(=O)[C@]3(C)O[C@@H]3C)[C@@H]12 |  | > 100 µM |  | > 100 µM |  | > 100 µM |  | 24.7 µM |  | 24.1 µM |  | 32.9 µM |  | 31.9 µM |  | 37.6 µM |  | 18.5 µM |  | 24.4 µM
3 | Cc1c(C(=O)Nc2ccc(N3C[C@@H](C)O[C@@H](C)C3)nc2)cccc1-c1ccc(OC(F)(F)F)cc1 | 5.69 µM and 13.5 µM | 26.6 µM and 42.1 µM | 4.91 µM and 6.91 µM | 22.1 µM and 32.1 µM | 5.34 µM and 3.84 µM | 26.5 µM and 26.1 µM | 10.8 µM and 14.1 µM | 29.8 µM and 44.6 µM | 2.69 µM and 2.41 µM | 25.2 µM and 17.6 µM | 9.63 µM and 11.6 µM | 37.5 µM and 33.6 µM | 9.08 µM and 12.7 µM | 27.6 µM and 35.7 µM | 10.1 µM and 12.9 µM | 25.8 µM and 32.5 µM | 10.6 µM and 13.9 µM | > 88.4 µM and 93.3 µM | 5.73 µM and 4.55 µM | 28.4 µM and 34.2 µM
4 | CN(C(=O)C(C)(C)C)c1ccccc1I(=O)=O | > 100 µM | > 100 µM | > 100 µM | > 100 µM | > 100 µM | > 100 µM | > 100 µM | > 100 µM | 38.3 µM | > 100 µM | > 100 µM | > 100 µM | > 100 µM | > 100 µM | > 100 µM | > 100 µM | > 100 µM | > 100 µM | > 100 µM | > 100 µM
5 | CC1=CC2(C)/C=C(C)/C=C\CC(O)/C=C3/C=CC(=C4C(=O)OC2(CC1C)C4=O)OC3 (stereo not drawn) | 3.08 µM | 12.2 µM | 3.66 µM | 16.8 µM | 8.31 µM | 32 µM | 1.92 µM | 5.01 µM | 1.63 µM | 6.52 µM | 2.93 µM | 8.93 µM | 3.3 µM | 10.8 µM | 2.84 µM | 17.3 µM | 0.512 µM | 2.72 µM | 3.09 µM | > 31.7 µM
6 | COc1nn(C)cc1Nc1nccc(-c2c[nH]c3c(NC(=O)[C@@H](C)N4CCN(C)CC4)cccc23)n1 | 61.9 µM | > 100 µM | 44.3 µM | > 100 µM | 28 µM | 99.4 µM | 38.3 µM | > 100 µM |  |  | 18.9 µM | > 100 µM | 40.6 µM | > 100 µM | 16.2 µM | 40.9 µM | 40.8 µM | > 100 µM | 47 µM | > 100 µM
7 | CCC(=O)NC1=C(Cl)C(=O)C(NC(=O)CC)=C(Cl)C1=O | 24 µM | 58.6 µM | 29.4 µM | > 61.8 µM | > 39.2 µM | > 53.8 µM | 17.7 µM | 31.9 µM | 5.51 µM | 14.2 µM | 20.6 µM | 37 µM | 29.7 µM | > 57.3 µM | 13.7 µM | 18.1 µM | 5.77 µM | 11 µM | 18.1 µM | 33.1 µM
8 | C[C@]12CC[C@H]3[C@@H](CC[C@]4(O)C[C@@H](O)CC[C@]34C=O)[C@@]1(O)CC[C@@H]2C1=CC(=O)OC1 |  | 1.92 µM |  | 0.408 µM |  | 1.74 µM |  | 1.8 µM |  | 5.03 µM |  | 19.6 µM |  | 3.38 µM |  |  |  | 2.79 µM |  | 1.3 µM
9 | COC(=O)C1=C(C)NC(C)=C(C(=O)OC)C1c1cccc(/[N+]([O-])=C/c2ccccc2)c1 |  | 58 µM |  | > 100 µM |  | > 100 µM |  |  |  | 41.6 µM |  | > 100 µM |  | > 100 µM |  | > 100 µM |  | 38 µM |  | > 100 µM
10 | CC(=O)OC1CC2(C)C(=CC1C1SCCS1)CCC1C2CCC2(C)C(OC(C)=O)CCC12 (stereo not drawn) |  | > 100 µM |  | > 100 µM |  | 90 µM |  | > 100 µM |  | > 100 µM |  | > 100 µM |  | > 100 µM |  | 63.1 µM |  | > 100 µM |  | > 100 µM
11 | CCC[CH2][Sn]1([CH2]CCC)[O]C(=O)c2cccc([N+](=O)[O-])c2C(=O)[O]1 | 1.53 µM | 3.21 µM | 1.77 µM | 3.59 µM | 1.55 µM | 2.95 µM | 0.784 µM | 2.15 µM | 0.0604 µM | 0.27 µM | 0.89 µM | 2.38 µM | 0.381 µM | 1.5 µM | 0.324 µM | 1.64 µM | 0.171 µM | 0.54 µM |  | 
12 | CC(=O)C(CN1C(=O)c2ccccc2C1=O)C(C)=O |  |  |  | > 100 µM |  | > 100 µM |  | > 100 µM |  | > 100 µM |  | > 100 µM |  | > 100 µM |  | > 100 µM |  | > 100 µM |  | > 100 µM
13 | CCCCCCC(=O)NC1=C(N2CC2)C(=O)C(NC(=O)CCCCCC)=C(N2CC2)C1=O | 3.18 µM | > 100 µM | 2.79 µM | > 100 µM | 0.444 µM | 34 µM |  |  | 3.45 µM | > 100 µM | 2.31 µM | > 100 µM | 1.87 µM | > 100 µM | 11.7 µM | 43.9 µM | 2.25 µM | > 100 µM |  | 
14 | COC(=O)CC[C@@H](C)[C@H]1CC[C@H]2[C@@H]3CC[C@@H]4C[C@H](O)CC[C@]4(C)[C@H]3CC[C@]12C |  | 43.6 µM |  | 36.6 µM |  | 33.9 µM |  | 33.2 µM |  | 36 µM |  | 35.4 µM |  | 34.3 µM |  | 36.1 µM |  | > 100 µM |  | 35.6 µM
15 | Clc1ccc2c(NC3CCC(N4CCCCC4)CC3)ccnc2c1 (stereo not drawn) |  | > 100 µM |  | > 100 µM |  | 36.8 µM |  | > 100 µM |  | > 100 µM |  | > 100 µM |  | 32.2 µM |  |  |  | > 100 µM |  | > 100 µM
